The numbers were not newly measured in patent US6773610B2, “Method for controlling biofilm” (priority 1999, dated 2004), which cites them from elsewhere.

Molecules are shown by their SMILES.

The test system of this data set is bacteria and viruses. As to conditions: versus chlorine.

`O=[O+][O-]` [Ozone]: the “Speed of deactivation of bacteria and viruses relative to chlorine” value was 3125 times faster.
